Experimental data: US5245035A, “Heterocyclic boron compounds as intermediates for angiotensin II antagonists” (Imperial Chemical Industries PLC, priority 1991, dated 1993)
Counter-ions that a name gives are not always drawn.

Legend:
[1] = tested on: angiotensin II-induced pressor responses; assay: Test C: in vivo antagonism of angiotensin II-induced pressor responses in terminally-anaesthetised or conscious rats; conditions: Rattus norvegicus, iv, i.v. administration
Excerpt: The antagonism of one or more of the physiological actions of AII and, in particular, the antagonism of the interaction of AII with the receptors which mediate its effects on a target tissue, may be assessed using one or more of the following, routine laboratory procedures: This in vivo test involves using terminally-anaesthetised or conscious rats in which an arterial catheter has been implanted under anaesthesia for the measurement of changes in blood pressure. The AII antagonistic effects of the test compound following oral or parenteral administration, are assessed against angiotensin II-induced pressor responses. To ensure that the effect is specific, the effect of the test compound on vasopressin-induced pressor responses may also be determined in the same preparation.

[2] = target: T1, AII-induced contractions of isolated rabbit aorta (Oryctolagus cuniculus, UniProt P34976); assay: Test B: in vitro antagonism of AII-induced contractions of isolated rabbit aorta; type: cell-based; conditions: 37° C., read-out: average pA2 (converted)
T1 construct: isolated rabbit aorta, maintained in a physiological salt solution; from tissue; host or cells: isolated rabbit aorta
T1 sequence (P34976 1-359): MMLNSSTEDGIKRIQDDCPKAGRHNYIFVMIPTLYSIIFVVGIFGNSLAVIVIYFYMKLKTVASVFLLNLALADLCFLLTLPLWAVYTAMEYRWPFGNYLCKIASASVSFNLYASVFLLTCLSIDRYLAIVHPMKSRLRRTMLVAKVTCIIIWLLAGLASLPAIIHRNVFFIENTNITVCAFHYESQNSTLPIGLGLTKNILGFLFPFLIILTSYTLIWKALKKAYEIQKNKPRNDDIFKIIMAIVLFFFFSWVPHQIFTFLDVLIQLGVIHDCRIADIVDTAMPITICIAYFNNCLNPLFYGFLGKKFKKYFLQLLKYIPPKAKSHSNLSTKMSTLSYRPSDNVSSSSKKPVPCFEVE
Experimental: The antagonism of one or more of the physiological actions of AII and, in particular, the antagonism of the interaction of AII with the receptors which mediate its effects on a target tissue, may be assessed using one or more of the following, routine laboratory procedures: This in vitro test involves the measurement of the antagonistic effects of the test compound against […] contractions of isolated rabbit aorta, maintained in a physiological salt solution at 37° C. In order to ensure that the effect of the compound is specific to antagonism of AII, the effect of the test compound on noradrenaline-induced contractions may also be determined in the same preparation.

Row | Kb [2] [nM] | SMILES | ED50 [1] [mg/kg]
1 | 1.12 | Cc1cc(OCc2ccc(-c3ccccc3-c3nnn[nH]3)cc2)c2ccccc2n1.Cl [2-methyl-4-[(2'-(1H-tetrazol-5-yl)biphenyl-4-yl)methoxy]quinoline hydrochloride] | 0.5
2 | – | Cc1cc(OCc2ccc(-c3ccccc3-c3nnn[nH]3)cc2)c2c(n1)CCCC2 [2-methyl-5,6,7,8-tetrahydro-4-[(2'-(1H-tetrazol-5-yl)methoxy]quinoline hydrochloride] | 0.28
